Assay results from ChEMBL document CHEMBL1131475, “Discovery of ritonavir, a potent inhibitor of HIV protease with high oral bioavailability and clinical efficacy” (J Med Chem, 1998).

Tests used:
in vivo [1] = conditions: rat, plasma, po, 10 mg/kg
[2] = Oral bioavailability in rat; format: ADME, organism-based; conditions: in vivo
in vivo [3] = conditions: rat, plasma, po
in vivo [4] = conditions: rat, plasma, po; remark: listed apart in the source
in vivo [5] = conditions: rat, plasma, iv

CC(C)c1cccc(COC(=O)NC(C(=O)N[C@@H](Cc2ccccc2)C[C@H](O)[C@H](Cc2ccccc2)NC(=O)OCc2cccnc2)C(C)C)n1 (stereo partly drawn)
Cmax (in vivo [1]): 200 nM
bioavailability [2]: 5.6%
AUC (in vivo [3]): 140 ng·h/mL
Tmax (in vivo [4]): 15 min
half-life (in vivo [5]): 34.2 min

Cc1ncc(COC(=O)N[C@@H](Cc2ccccc2)[C@@H](O)C[C@H](Cc2ccccc2)NC(=O)C(NC(=O)N(C)Cc2csc(C(C)C)n2)C(C)C)s1 (stereo partly drawn)
Cmax (in vivo [1]): 650 nM
bioavailability [2]: 23%
AUC (in vivo [3]): 910 ng·h/mL
Tmax (in vivo [4]): 72 min
half-life (in vivo [5]): 26.4 min

CCc1nc(CN(C)C(=O)NC(C(=O)N[C@@H](Cc2ccccc2)[C@@H](O)C[C@H](Cc2ccccc2)NC(=O)OCc2cncs2)C(C)C)cs1 (stereo partly drawn)
Cmax (in vivo [1]): 5120 nM
F [2]: 167%
AUC (in vivo [3]): 9370 ng·h/mL
Tmax (in vivo [4]): 60 min

CC(C)c1nc(CCC(=O)NC(C(=O)N[C@@H](Cc2ccccc2)C[C@H](O)[C@H](Cc2ccccc2)NC(=O)OCc2cccnc2)C(C)C)cs1 (stereo partly drawn)
Cmax (in vivo [1]): 380 nM
bioavailability [2]: 3.4%
AUC (in vivo [3]): 170 ng·h/mL
Tmax (in vivo [4]): 6 min
half-life (in vivo [5]): 16.8 min

CC(C)c1cccc(COC(=O)NC(C(=O)N[C@@H](Cc2ccccc2)[C@@H](O)C[C@H](Cc2ccccc2)NC(=O)OCc2cccnc2)C(C)C)n1 (stereo partly drawn)
Cmax (in vivo [1]): 310 nM
bioavailability [2]: 8.3%
AUC (in vivo [3]): 310 ng·h/mL
Tmax (in vivo [4]): 15 min
half-life (in vivo [5]): 78.6 min

CCc1nc(COC(=O)NC(C(=O)N[C@@H](Cc2ccccc2)C[C@H](O)[C@H](Cc2ccccc2)NC(=O)OCc2cccnc2)C(C)C)cs1 (stereo partly drawn)
Cmax (in vivo [1]): 1300 nM
bioavailability [2]: 7.4%
AUC (in vivo [3]): 330 ng·h/mL
Tmax (in vivo [4]): 9 min
half-life (in vivo [5]): 45 min

CCc1cccc(COC(=O)NC(C(=O)N[C@@H](Cc2ccccc2)C[C@H](O)[C@H](Cc2ccccc2)NC(=O)OCc2cccnc2)C(C)C)n1 (stereo partly drawn)
Cmax (in vivo [1]): 590 nM
bioavailability [2]: 8%
AUC (in vivo [3]): 470 ng·h/mL
Tmax (in vivo [4]): 12 min
half-life (in vivo [5]): 23.4 min

COc1ccc(COC(=O)NC(C(=O)N[C@@H](Cc2ccccc2)C[C@H](O)[C@H](Cc2ccccc2)NC(=O)OCc2cccnc2)C(C)C)nc1 (stereo partly drawn)
Cmax (in vivo [1]): 290 nM
bioavailability [2]: 1.3%
AUC (in vivo [3]): 50 ng·h/mL
Tmax (in vivo [4]): 6 min
half-life (in vivo [5]): 15 min

CC(C)c1nc(CN(C)C(=O)NC(C(=O)N[C@@H](Cc2ccccc2)C[C@H](O)[C@H](Cc2ccccc2)NC(=O)OCc2ccno2)C(C)C)co1 (stereo partly drawn)
Cmax (in vivo [1]): 490 nM
bioavailability [2]: 3.8%
AUC (in vivo [3]): 180 ng·h/mL
Tmax (in vivo [4]): 6 min
half-life (in vivo [5]): 24 min

CC(C)C(NC(=O)OCc1cnccn1)C(=O)N[C@@H](Cc1ccccc1)C[C@H](O)[C@H](Cc1ccccc1)NC(=O)OCc1cccnc1 (stereo partly drawn)
Cmax (in vivo [1]): 500 nM
bioavailability [2]: 2.4%
AUC (in vivo [3]): 100 ng·h/mL
Tmax (in vivo [4]): 12 min
half-life (in vivo [5]): 12 min

CCc1ncc(COC(=O)NC(C(=O)N[C@@H](Cc2ccccc2)[C@@H](O)C[C@H](Cc2ccccc2)NC(=O)OCc2cccnc2)C(C)C)s1 (stereo partly drawn)
Cmax (in vivo [1]): 340 nM
bioavailability [2]: 9.2%
AUC (in vivo [3]): 490 ng·h/mL
Tmax (in vivo [4]): 16.8 min
half-life (in vivo [5]): 73.8 min

Cc1cccc(COC(=O)NC(C(=O)N[C@@H](Cc2ccccc2)[C@@H](O)C[C@H](Cc2ccccc2)NC(=O)OCc2ccoc2)C(C)C)n1 (stereo partly drawn)
bioavailability [2]: 0%
half-life (in vivo [5]): 13.2 min

COCc1nc(CN(C)C(=O)NC(C(=O)N[C@@H](Cc2ccccc2)C[C@H](O)[C@H](Cc2ccccc2)NC(=O)OCc2cccnc2)C(C)C)cs1 (stereo partly drawn)
Cmax (in vivo [1]): 1350 nM
bioavailability [2]: 8%
AUC (in vivo [3]): 490 ng·h/mL
Tmax (in vivo [4]): 12 min
half-life (in vivo [5]): 23.4 min

CC(C)c1nc(CCC(=O)NC(C(=O)N[C@@H](Cc2ccccc2)[C@@H](O)C[C@H](Cc2ccccc2)NC(=O)OCc2cccnc2)C(C)C)cs1 (stereo partly drawn)
Cmax (in vivo [1]): 320 nM
bioavailability [2]: 9%
AUC (in vivo [3]): 410 ng·h/mL
Tmax (in vivo [4]): 6 min
half-life (in vivo [5]): 54.6 min

Cc1ccc(COC(=O)NC(C(=O)N[C@@H](Cc2ccccc2)C[C@H](O)[C@H](Cc2ccccc2)NC(=O)OCc2cccnc2)C(C)C)cn1 (stereo partly drawn)
Cmax (in vivo [1]): 780 nM
bioavailability [2]: 6.4%
AUC (in vivo [3]): 270 ng·h/mL
Tmax (in vivo [4]): 9 min
half-life (in vivo [5]): 39 min

COc1ccc(CN(C)C(=O)NC(C(=O)N[C@@H](Cc2ccccc2)[C@@H](O)C[C@H](Cc2ccccc2)NC(=O)OCc2cccnc2)C(C)C)nc1 (stereo partly drawn)
Cmax (in vivo [1]): 2170 nM
bioavailability [2]: 17%
AUC (in vivo [3]): 820 ng·h/mL
Tmax (in vivo [4]): 9 min
half-life (in vivo [5]): 36 min

COCc1ncc(COC(=O)NC(C(=O)N[C@@H](Cc2ccccc2)[C@@H](O)C[C@H](Cc2ccccc2)NC(=O)OCc2cccnc2)C(C)C)s1 (stereo partly drawn)
Cmax (in vivo [1]): 380 nM
bioavailability [2]: 11%
AUC (in vivo [3]): 420 ng·h/mL
Tmax (in vivo [4]): 9 min
half-life (in vivo [5]): 22.2 min

Cc1cncc(COC(=O)NC(C(=O)N[C@@H](Cc2ccccc2)C[C@H](O)[C@H](Cc2ccccc2)NC(=O)OCc2cccnc2)C(C)C)c1 (stereo partly drawn)
Cmax (in vivo [1]): 330 nM
bioavailability [2]: 1.6%
AUC (in vivo [3]): 70 ng·h/mL
Tmax (in vivo [4]): 9 min
half-life (in vivo [5]): 22.8 min

CC(C)c1csc(COC(=O)NC(C(=O)N[C@@H](Cc2ccccc2)C[C@H](O)[C@H](Cc2ccccc2)NC(=O)OCc2cncs2)C(C)C)n1 (stereo partly drawn)
Cmax (in vivo [1]): 5800 nM
F [2]: 151%
AUC (in vivo [3]): 14300 ng·h/mL
Tmax (in vivo [4]): 55.2 min
half-life (in vivo [5]): 30 min

Cc1cnc(COC(=O)NC(C(=O)N[C@@H](Cc2ccccc2)[C@@H](O)C[C@H](Cc2ccccc2)NC(=O)OCc2cccnc2)C(C)C)cn1 (stereo partly drawn)
Cmax (in vivo [1]): 350 nM
bioavailability [2]: 2.8%
AUC (in vivo [3]): 70 ng·h/mL
Tmax (in vivo [4]): 12 min
half-life (in vivo [5]): 10.8 min

CC(NC(=O)OCc1csc(C(C)C)n1)C(=O)N[C@@H](Cc1ccccc1)C[C@H](O)[C@H](Cc1ccccc1)NC(=O)OCc1cncs1 (stereo partly drawn)
Cmax (in vivo [1]): 1090 nM
bioavailability [2]: 19%
AUC (in vivo [3]): 1230 ng·h/mL
Tmax (in vivo [4]): 24 min
half-life (in vivo [5]): 31.8 min

CC(C)C(NC(=O)N(C)Cc1ccccn1)C(=O)N[C@@H](Cc1ccccc1)[C@@H](O)C[C@H](Cc1ccccc1)NC(=O)OCc1cncnc1 (stereo partly drawn)
Cmax (in vivo [1]): 2910 nM
bioavailability [2]: 13%
AUC (in vivo [3]): 870 ng·h/mL
Tmax (in vivo [4]): 12 min
half-life (in vivo [5]): 21 min

CC(C)c1nc(CN(C)C(=O)NCCC(=O)N[C@@H](Cc2ccccc2)C[C@H](O)[C@H](Cc2ccccc2)NC(=O)OCc2cncs2)cs1
Cmax (in vivo [1]): 630 nM
bioavailability [2]: 7.1%
AUC (in vivo [3]): 190 ng·h/mL
Tmax (in vivo [4]): 6 min
half-life (in vivo [5]): 57.6 min

CC(C)C(NC(=O)OCc1ccccn1)C(=O)N[C@@H](Cc1ccccc1)[C@@H](O)C[C@H](Cc1ccccc1)NC(=O)OCc1cncnc1 (stereo partly drawn)
Cmax (in vivo [1]): 1180 nM
bioavailability [2]: 6.7%
AUC (in vivo [3]): 280 ng·h/mL
Tmax (in vivo [4]): 12 min
half-life (in vivo [5]): 30 min

CC(C)C(NC(=O)OCc1csc(N2CCOCC2)n1)C(=O)N[C@@H](Cc1ccccc1)[C@@H](O)C[C@H](Cc1ccccc1)NC(=O)OCc1cccnc1 (stereo partly drawn)
Cmax (in vivo [1]): 90 nM
bioavailability [2]: 1.1%
AUC (in vivo [3]): 30 ng·h/mL
Tmax (in vivo [4]): 9 min
half-life (in vivo [5]): 21 min

Cc1ncc(COC(=O)NC(C(=O)N[C@@H](Cc2ccccc2)C[C@H](O)[C@H](Cc2ccccc2)NC(=O)OCc2cccnc2)C(C)C)nc1C (stereo partly drawn)
Cmax (in vivo [1]): 2060 nM
bioavailability [2]: 10%
AUC (in vivo [3]): 480 ng·h/mL
Tmax (in vivo [4]): 6 min
half-life (in vivo [5]): 25.8 min

CC(C)C(NC(=O)OCc1csc(N2CCOCC2)n1)C(=O)N[C@@H](Cc1ccccc1)C[C@H](O)[C@H](Cc1ccccc1)NC(=O)OCc1cccnc1 (stereo partly drawn)
bioavailability [2]: 0%
half-life (in vivo [5]): 19.2 min

Cc1cncc(CN(C)C(=O)NC(C(=O)N[C@@H](Cc2ccccc2)C[C@H](O)[C@H](Cc2ccccc2)NC(=O)OCc2cccnc2)C(C)C)c1 (stereo partly drawn)
Cmax (in vivo [1]): 690 nM
bioavailability [2]: 9.7%
AUC (in vivo [3]): 310 ng·h/mL
Tmax (in vivo [4]): 6 min
half-life (in vivo [5]): 31.8 min

CCc1nc(COC(=O)NC(C(=O)N[C@@H](Cc2ccccc2)[C@@H](O)C[C@H](Cc2ccccc2)NC(=O)OCc2cccnc2)C(C)C)cs1 (stereo partly drawn)
Cmax (in vivo [1]): 990 nM
bioavailability [2]: 9.5%
AUC (in vivo [3]): 420 ng·h/mL
Tmax (in vivo [4]): 6 min
half-life (in vivo [5]): 29.4 min

CC(C)C(NC(=O)N(C)Cc1csc(C2CC2)n1)C(=O)N[C@@H](Cc1ccccc1)[C@@H](O)C[C@H](Cc1ccccc1)NC(=O)OCc1cncs1 (stereo partly drawn)
Cmax (in vivo [1]): 3980 nM
F [2]: 175%
AUC (in vivo [3]): 10700 ng·h/mL
Tmax (in vivo [4]): 138 min
half-life (in vivo [5]): 31.8 min

CC(C)c1nc(CN(C)C(=O)NC(C(=O)N[C@@H](Cc2ccccc2)C[C@H](O)[C@H](Cc2ccccc2)NC(=O)OCc2cccnc2)C(C)C)cs1 (stereo partly drawn)
Cmax (in vivo [1]): 980 nM
bioavailability [2]: 12%
AUC (in vivo [3]): 530 ng·h/mL
Tmax (in vivo [4]): 19.8 min
half-life (in vivo [5]): 61.8 min
